This is an account of results in patent US20150252048A1, “SUBSTITUTED N-(3-PYRIMIDIN-4-YL)PHENYL)ACRYLAMIDE ANALOGS AS TYROSINE RECEPTOR KINASE BTK INHIBITORS” (UNIVERSITY OF UTAH RESEARCH FOUNDATION, priority 2012, published 2015).

Where two headings read alike, the source gives them in different places.

One data set deals with T1, BMX/ETK (Homo sapiens, UniProt P51813).
T1 sequence (P51813 1-675): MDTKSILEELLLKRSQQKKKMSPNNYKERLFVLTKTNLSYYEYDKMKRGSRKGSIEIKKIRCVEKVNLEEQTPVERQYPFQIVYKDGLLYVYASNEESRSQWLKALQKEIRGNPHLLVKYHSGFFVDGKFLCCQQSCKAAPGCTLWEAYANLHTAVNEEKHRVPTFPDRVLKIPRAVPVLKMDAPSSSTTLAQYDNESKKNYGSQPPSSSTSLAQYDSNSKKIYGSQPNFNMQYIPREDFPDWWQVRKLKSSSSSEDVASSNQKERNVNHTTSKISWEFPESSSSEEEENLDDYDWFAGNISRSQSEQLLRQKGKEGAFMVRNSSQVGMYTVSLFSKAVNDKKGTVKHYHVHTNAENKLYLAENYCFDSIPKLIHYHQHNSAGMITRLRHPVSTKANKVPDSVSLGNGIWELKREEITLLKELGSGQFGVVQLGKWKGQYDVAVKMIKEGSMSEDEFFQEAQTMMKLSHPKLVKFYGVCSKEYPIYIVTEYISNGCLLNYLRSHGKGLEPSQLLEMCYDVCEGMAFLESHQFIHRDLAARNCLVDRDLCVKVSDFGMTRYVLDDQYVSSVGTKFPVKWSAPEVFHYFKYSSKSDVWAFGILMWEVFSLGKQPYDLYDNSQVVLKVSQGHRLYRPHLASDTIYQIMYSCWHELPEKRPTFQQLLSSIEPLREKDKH
In words: Specific kinase IC50 assay. It counts as biochemical. The conditions noted are these: 1 μM ATP, 10-dose, duplicate. The method, then: (§1) The assays were carried out in the presence of 1 μM ATP and were conducted in a 10-dose format in duplicate with three-fold serial dilutions starting at 10 μM.

In a further data set the target is T2, TEC (Homo sapiens, UniProt P42680).
T2 sequence (P42680 1-631): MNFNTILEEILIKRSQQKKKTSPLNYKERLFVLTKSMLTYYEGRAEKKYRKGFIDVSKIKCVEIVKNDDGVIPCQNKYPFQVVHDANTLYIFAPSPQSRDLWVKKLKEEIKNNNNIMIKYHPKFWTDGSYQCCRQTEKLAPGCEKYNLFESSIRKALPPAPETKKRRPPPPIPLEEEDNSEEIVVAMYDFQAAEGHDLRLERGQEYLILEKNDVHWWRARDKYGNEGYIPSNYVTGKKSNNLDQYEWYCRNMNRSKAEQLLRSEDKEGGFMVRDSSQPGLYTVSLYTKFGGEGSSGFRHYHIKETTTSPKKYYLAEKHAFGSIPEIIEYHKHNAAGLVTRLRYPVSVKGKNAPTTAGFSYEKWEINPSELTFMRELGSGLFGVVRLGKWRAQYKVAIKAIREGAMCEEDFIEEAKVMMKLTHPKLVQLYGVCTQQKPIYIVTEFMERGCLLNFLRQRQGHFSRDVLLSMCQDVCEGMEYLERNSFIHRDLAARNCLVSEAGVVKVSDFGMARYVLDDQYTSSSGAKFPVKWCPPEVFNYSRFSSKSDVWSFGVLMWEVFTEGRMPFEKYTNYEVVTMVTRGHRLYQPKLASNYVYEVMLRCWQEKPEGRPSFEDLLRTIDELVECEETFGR
Kind of data set: Specific kinase IC50 assay. Type of data set: biochemical. The conditions noted are these: 1 μM ATP, 10-dose, duplicate. The protocol: as §1

Another data set concerns the target EGFR (T790M) (Homo sapiens, UniProt P00533, T790M). Kind of data set: Specific kinase IC50 assay. The conditions noted are these: 1 μM ATP, 10-dose, duplicate. It counts as biochemical. The method, then: as §1
Another data set can be described thus: Pharmacokinetics in mice. Type of data set: in vivo. The conditions noted are these: mouse, plasma. The method, then: The pharmacokinetic behavior of a representative disclosed compound, compound 3 (N-(3-(6-((3-morpholinophenyl)amino)-1H-pyrazolo[3,4-d]pyrimidin-4-yl)phenyl)acrylamide), which corresponds to compound 3 in Table I, was evaluated in mice. As used herein, “test compound” refers to compound 3. The study was carried out using three animals per dosing group. Animals were dosed as follows: a) Group 1 were administered 5 mg/kg of test compound by i.v. administration; b) Group 2 were dosed at 10 mg/kg by oral gavage using the base form of the test compound; and c) Group 3 were dosed at 10 mg/kg by oral gavage using a HCl salt of the test compound. Plasma concentration of the test compound was determined on samples take at the following time points: 0.08, 0.25, 0.50, 1, 2, 4, 8, and 24 hrs. Individual values were within 25% of the mean.

[1] abbreviates: po, 10 mg/kg, p.o. (HCl salt), 10 mg/kg oral gavage.
The mark [2] stands for this setting: po, 10 mg/kg, p.o. (base form), 10 mg/kg oral gavage.

EGFR (T790M), sequence (P00533 25-1210 T790M, species assumed): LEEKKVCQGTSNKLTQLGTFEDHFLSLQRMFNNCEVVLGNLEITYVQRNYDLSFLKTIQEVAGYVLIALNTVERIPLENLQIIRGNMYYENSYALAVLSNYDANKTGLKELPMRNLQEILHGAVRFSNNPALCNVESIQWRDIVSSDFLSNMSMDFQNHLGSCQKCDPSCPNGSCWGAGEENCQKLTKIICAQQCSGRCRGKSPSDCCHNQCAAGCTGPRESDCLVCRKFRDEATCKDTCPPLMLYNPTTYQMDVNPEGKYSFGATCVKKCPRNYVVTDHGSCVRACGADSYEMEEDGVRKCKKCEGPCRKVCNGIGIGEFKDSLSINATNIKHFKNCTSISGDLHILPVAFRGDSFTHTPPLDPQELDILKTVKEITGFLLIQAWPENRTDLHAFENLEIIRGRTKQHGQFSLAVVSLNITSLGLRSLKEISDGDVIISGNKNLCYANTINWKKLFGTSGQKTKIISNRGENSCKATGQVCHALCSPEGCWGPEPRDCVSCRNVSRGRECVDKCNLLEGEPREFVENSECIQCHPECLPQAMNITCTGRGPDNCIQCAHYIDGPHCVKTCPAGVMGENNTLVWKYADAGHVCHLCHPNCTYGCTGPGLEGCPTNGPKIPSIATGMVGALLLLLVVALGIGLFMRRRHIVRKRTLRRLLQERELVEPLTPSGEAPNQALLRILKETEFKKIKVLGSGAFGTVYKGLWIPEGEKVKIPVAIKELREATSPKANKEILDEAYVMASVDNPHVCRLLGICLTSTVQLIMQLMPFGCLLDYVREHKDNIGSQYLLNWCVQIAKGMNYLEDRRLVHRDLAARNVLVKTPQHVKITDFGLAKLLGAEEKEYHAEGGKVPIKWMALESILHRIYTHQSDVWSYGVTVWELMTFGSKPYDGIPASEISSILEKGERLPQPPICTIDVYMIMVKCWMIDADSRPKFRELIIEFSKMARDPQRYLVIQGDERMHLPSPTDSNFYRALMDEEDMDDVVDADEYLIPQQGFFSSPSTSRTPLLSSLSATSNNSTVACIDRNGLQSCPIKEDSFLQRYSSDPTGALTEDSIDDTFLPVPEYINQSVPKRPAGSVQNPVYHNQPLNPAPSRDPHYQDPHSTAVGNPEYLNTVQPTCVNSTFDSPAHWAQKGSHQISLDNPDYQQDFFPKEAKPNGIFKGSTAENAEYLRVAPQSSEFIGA

For orientation: IC50 means the concentration that gives 50% inhibition. Low values mean greater potency in that assay, high ones weaker potency in that assay. Usually Cmax stands for the highest concentration seen after dosing. By Tmax is commonly meant the time at which the peak concentration occurs. One may read the clearance as the rate of elimination divided by the concentration. Higher therefore signals a high capacity for elimination. In general, half-life refers to how long it takes for the measured level to halve. A high value points to slow loss. By bioavailability is commonly meant dose-corrected exposure relative to a reference, in per cent. Turning to `C=CC(=O)Nc1cccc(-c2nc(Nc3cccc(N4CCOCC4)c3)nc3[nH]ncc23)c1` [Compound 3, N-(3-(6-((3-morpholinophenyl)amino)-1H-pyrazolo[3,4-d]pyrimidin-4-yl)phenyl)acrylamide], the IC50 against BMX/ETK is 9.26 nM; at TEC, 50.2 nM; against EGFR (T790M) it was 979 nM. Besides, the Cmax in the data set “Pharmacokinetics in mice” (iv, 5 mg/kg) worked out at 3520 ng/mL; in the data set “Pharmacokinetics in mice” (setting [1]) it was 465 ng/mL; in the data set “Pharmacokinetics in mice” (setting [2]), 299 ng/mL. The Tmax in “Pharmacokinetics in mice” (iv, 5 mg/kg) turned out to be 4.8 min; in “Pharmacokinetics in mice” (setting [1]), 15 min; in the data set “Pharmacokinetics in mice” (setting [2]) it was 30 min. Further, the clearance in “Pharmacokinetics in mice” (iv, 5 mg/kg) came out at 67 mL/min/kg. Moreover, the half-life in the data set “Pharmacokinetics in mice” (iv, 5 mg/kg) is 90 min. In addition, the AUC(0-t) in the data set “Pharmacokinetics in mice” (iv, 5 mg/kg, i.v., 5 mg/kg, read-out: AUC0-4) amounted to 1180 ng·h/mL; in the data set “Pharmacokinetics in mice” (iv, 5 mg/kg, i.v., 5 mg/kg, read-out: AUC0-t), 1230 ng·h/mL; in the data set “Pharmacokinetics in mice” (po, 10 mg/kg, p.o. (HCl salt), 10 mg/kg oral gavage, read-out: AUC0-4), 357 ng·h/mL; in “Pharmacokinetics in mice” (po, 10 mg/kg, p.o. (base form), 10 mg/kg oral gavage, read-out: AUC0-4) it was 270 ng·h/mL. In addition, the Vd in “Pharmacokinetics in mice” (iv, 5 mg/kg, read-out: Vss) worked out at 2.6 L/kg. In addition, the bioavailability worked out at 3% in “Pharmacokinetics in mice” (setting [1]) and 2.3% in “Pharmacokinetics in mice” (setting [2]).
